Source: US20260216166A1, “COMPOUND FOR TREATMENT OF ERECTILE DYSFUNCTION” (Initiator Pharma A/S, priority 2023, published 2026)
“Also recorded” adds a separate entry of the source.

Legend:
[1] = test system: rat corpus cavernosum strips; assay: Isometric tension of isolated rat corpus cavernosum strips; conditions: baseline tension, clozapine 10^-6 M, SCH23390, L-NOARG 10^-4 M, sildenafil 10^-7 M
Method: For functional studies in corpus cavernosum strips, the penis was removed by cutting the crura corpora cavernosa at the point of adhesion to the lower pubic bone, and the corpora cavernosa were then dissected free. The penis was submerged immediately in ice-cold (4° C.) PSS. The tunica albuginea was carefully opened from its proximal extremity of the corpus cavernosum towards the penile shaft and the erectile tissue within the corpus cavernosum was microsurgically dissected free. Change in isometric tension of corpus cavernosum strips (0.5×0.5×3 mm) were investigated in a tissue organ bath system (750TOBS, Danish Myotechnology, Aarhus, Denmark). Silk ligatures were applied at both ends of the strip preparations, which were then suspended between two L-formed metal prongs in thermostatically controlled organ baths (5 ml, 37° C.) containing PSS aerated with a mixture of 5% CO2 in air (pH 7.4). The bath fluid was routinely changed every 20 min and replaced with fresh PSS, also kept at 37° C. During an equilibration period of 60 min, tension was adjusted until a mean stable tension of 1.2 mN was obtained, as described earlier.
To test the contractility of the preparations, they were exposed to a potassium physiological saline solution (KPSS) of 125 mM and phenylephrine (10^-6 M), after each contraction acetylcholine was administrated to check endothelium-dependent relaxations.
To investigate the effect of IP2015 on corpus cavernosum strips, the drug (10 9-3×10^-4 M) was administered either in preparations at baseline tension or contracted with phenylephrine (10^-6 M) in the absence or presence of L-NOARG (10 4 M), a NO synthase inhibitor, sildenafil (10^-7 M), a PDE5 inhibitor, a dopamine D1 receptor antagonist, SCH23390, and a dopamine D2 receptor antagonist, clozapine (10^-6 M). The effect of vehicle was also investigated.

anaesthetized rats = assay: Intracavernous pressure / spontaneous erections in anaesthetized rats; assay type: in vivo, rat; conditions: rats
Method: For in vivo erectile physiology studies, rats were anaesthetized with pentobarbital sodium (Sygehus Apoteket, Aarhus, Denmark; 50 mg/kg) given intraperitoneally. During the experiment, the rats breathed spontaneously; the body temperature was monitored continuously and was maintained at 37° C. With a midline incision in the perineum, the base of the penis, enclosed by striated muscles, was exposed. The ischiocavernous muscle covering the crus corpus cavernosum was divided on one side, and entrance to the underlying tunica albuginea was given. A 25-gauge needle attached to a heparinized (100 IE ml-1) polyethylene catheter was inserted into the crus corpus cavernosum to measure intracavernous pressure (ICP). A heparinized polyethylene catheter (PE 50) was introduced into the carotid artery to measure mean arterial pressure (MAP). Continuous direct measurements of MAP and ICP were performed with transducers (Disposable BP Transducer, ADInstruments, UK), and registered and analysed on a computerized data acquisition system (PowerLab, ADInstruments).
A stabilizing period of 20-30 min was allowed before registration of basal ICP and MAP. Through a lower abdominal incision, the cavernous nerve was isolated at the lateral aspect of the prostate, and electrical stimulation was performed with a slender bipolar platinum electrode, which was connected to a S48 stimulator (Grass Instrument Co., Boston, MA, U.S.A.). To measure the maximum amplitude of the erectile response, a first stimulation of the cavernous nerve (square wave pulses of 6 Volts, 10 Hz, 1 ms pulse duration for 30 s) was performed.
IP2015, sildenafil, clozapine or vehicle were administered by injection in the jugular vein in volumes of maximum 200 μl. […] The observation period of spontaneous erection after injection of IP2015 was 30 min. Clozapine (1 mg/kg) or sildenafil (1 mg/kg) were administered 30 or 10 min prior to 1 mg/kg IP2015 injection, respectively. One group was injected with vehicle alone.
To investigate the involvement of proximal neuronal pathways in the effect of IP2015, mechanical denervation was performed. For mechanical denervation the isolated cavernous nerve was cut distal to the major pelvic ganglion. Absence of erectile response to electrical stimulation verified the efficacy of mechanical denervation.

| SMILES | effect on IP2015 relaxation of corpus cavernosum strips [1] | effect on IP2015 relaxation of corpus cavernosum strips ([1]; listed as NG-nitro-L-arginine) | effect on magnitude of erectile responses induced by IP2015 (0.1 mg/kg) (anaesthetized rats; sildenafil 1 mg/kg) | effect on IP2015-induced erectile responses (anaesthetized rats; sildenafil 1 mg/kg 10 min or clozapine 1 mg/kg 30 min prior to IP2015 i.v.) |
| --- | --- | --- | --- | --- |
| N=C(NCCC[C@H](N)C(=O)O)N[N+](=O)[O-] [L-NOARG, N^G-nitro-L-arginine, reference compound] | abolished the relaxant effect of IP2015 | blunted | – | – |
| CCCc1nn(C)c2c(=O)[nH]c(-c3cc(S(=O)(=O)N4CCN(C)CC4)ccc3OCC)nc12 [sildenafil, reference compound] | enhanced relaxation to IP2015 | – | an effect on the magnitude of erectile responses | markedly increased the duration of these responses; also recorded: further enhanced the IP2015 mediated increase in intracavernosal pressure |
